Assay results from US20230365546A1, “5-SUBSTITUTED INDOLE 3-AMIDE DERIVATIVES, PREPARATION METHOD AND USE THEREOF” (ORIGIANT PHARMACEUTICAL CO., LTD, priority 2020, published 2023).

Experiments:
RIPK1 = RIPK1 (Homo sapiens (Human), UniProt Q13546); assay: In vitro kinase assay (Eurofins Kinase Profiler), IC50; assay type: biochemical; details: 0.001-10 μM, read-out: RIPK 1 (IC50)
Protocol: In vitro kinase assays were conducted using Kinase Profiler services provided by Eurofins. The experimental method was as follows: the small molecule compound to be tested (0.001-10 μM), the protein kinase to be tested were incubated with a buffer containing substrate, 10 mM magnesium acetate, and [γ-^33P-ATP], the reaction was started by adding Mg\TPmix, after incubation for a period of time at room temperature, a 3% phosphate solution was added to the buffer to stop the reaction. Subsequently, 10 μL of the reaction mixture was quantitatively pipetted onto P30 filter paper, which was washed three times with 75 mM phosphate solution and then once with methanol. The P30 filter paper was air-dried and scintillation fluid was added for scintillation counting.

HT-29 cells = assay: Protection against programmed necrosis of HT-29 cells (TNF α/Smac mimetic/Z-VAD-FMK, CCK8); assay type: cell-based; details: Homo sapiens, TNF α/Smac mimetic/Z-VAD-FMK induced 24 h, CCK8, read-out: HT-29 (EC50)

Chain of RIPK1 (Q13546 whole entry): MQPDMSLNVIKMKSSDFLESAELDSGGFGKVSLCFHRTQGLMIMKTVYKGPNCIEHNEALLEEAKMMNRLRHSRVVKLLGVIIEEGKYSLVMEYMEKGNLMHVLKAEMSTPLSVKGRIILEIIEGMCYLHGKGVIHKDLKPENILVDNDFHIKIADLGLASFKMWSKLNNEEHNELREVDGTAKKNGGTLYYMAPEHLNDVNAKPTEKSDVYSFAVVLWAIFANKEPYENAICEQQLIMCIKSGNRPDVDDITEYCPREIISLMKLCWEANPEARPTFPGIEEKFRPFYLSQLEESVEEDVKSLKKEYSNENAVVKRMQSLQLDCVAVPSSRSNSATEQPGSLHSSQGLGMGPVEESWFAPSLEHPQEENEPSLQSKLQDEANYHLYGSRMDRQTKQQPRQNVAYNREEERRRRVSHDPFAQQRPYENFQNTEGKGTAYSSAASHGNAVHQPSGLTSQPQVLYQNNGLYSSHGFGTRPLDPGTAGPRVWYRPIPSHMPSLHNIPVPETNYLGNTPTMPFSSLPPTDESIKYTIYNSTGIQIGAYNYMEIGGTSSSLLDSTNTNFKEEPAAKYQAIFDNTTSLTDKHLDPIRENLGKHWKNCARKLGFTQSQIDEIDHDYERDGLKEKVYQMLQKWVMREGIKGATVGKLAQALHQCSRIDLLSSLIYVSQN

Structure (SMILES)	IC50 (RIPK1) [nM]	EC50 (HT-29 cells) [nM]
CC(C)C(=O)Nc1nc2cc(-c3ccc4c(c3)c(C(=O)N[C@@H](C)c3ccncc3)cn4C)ccn2n1 [Compound 175]	10 to 100	10 to 100
C[C@H](NC(=O)c1cn(C)c2ccc(-c3ccn4nc(NC(=O)N5CCC[C@@H]5CO)nc4c3)cc12)c1cccc(F)c1 [Compound 177]	10 to 100	10 to 100
C[C@H](NC(=O)c1cn(C)c2ccc(-c3ccn4nc(NC(=O)N5CCNCC5)nc4c3)cc12)c1cccc(F)c1 [Compound 178]	1 to 10	1 to 10
C[C@H](NC(=O)c1cn(C)c2ccc(-c3ccn4nc(NC(=O)[C@H]5CCCN5)nc4c3)cc12)c1cccc(F)c1 [Compound 179]	< 1	< 1
C[C@H](NC(=O)c1cn(C)c2ccc(-c3ccn4nc(NC(=O)[C@@H]5CCCN5)nc4c3)cc12)c1cccc(F)c1 [Compound 180]	1 to 10	< 1
Cn1cc(C(=O)N2CCCC2c2cccc(F)c2)c2cc(-c3ccn4nc(NC(=O)C5CC5)cc4n3)ccc21 (centres unmarked) [Compound 185]	1 to 10	< 1
C[C@H](NC(=O)c1cn(C)c2ncc(-c3ccn4nc(NC(=O)C5CC5)nc4c3)cc12)c1cccc(F)c1 [Compound 186]	100 to 1000	100 to 1000
Cn1cc(C(=O)N2CCCC2c2cccc(F)c2)c2cc(-c3ccc4nc(NC(=O)C5CC5)cn4n3)ccc21 (centres unmarked) [Compound 187]	< 1	< 1
CNC(=O)Nc1nc2cc(-c3ccc4c(c3)c(C(=O)N[C@@H](C)c3cccc(F)c3)cn4C)ccn2n1 [Compound 195]	< 1	< 1
C[C@H](NC(=O)c1cn(C)c2ccc(-c3ccn4nc(N[C@@H](C)CO)nc4c3)cc12)c1cccc(F)c1 [Compound 196]	10 to 100	< 1
CCn1cc(C(=O)N2CCC[C@H]2c2ccc(F)cc2)c2cc(-c3ccn4nc(NC(=O)C5CC5)nc4c3)cnc21 [Compound 197]	1 to 10	< 1
CCn1cc(C(=O)N2CCC[C@H]2c2ccc(F)cc2)c2cc(-c3ccn4nc(NC(=O)[C@H](C)OC(C)=O)nc4c3)ccc21 [Compound 198]	10 to 100	1 to 10

The next lines start with results.

IC50 (RIPK1) [nM]	Structure (SMILES)	EC50 (HT-29 cells) [nM]
100 to 1000	C[C@H](NC(=O)c1cn(C)c2ccc(-c3ccn4nc(NC(=O)C5CC5)nc4c3)cc12)c1ccncc1 [Compound 176]	100 to 1000
100 to 1000	COc1ccc([C@H](C)NC(=O)c2cn(C)c3ccc(-c4ccn5nc(NC(=O)C6CC6)nc5c4)cc23)cc1F [Compound 181]	100 to 1000
1 to 10	C[C@H](NC(=O)c1cn(C)c2ccc(-c3ccn4nc(NC(=O)C5CC5)nc4c3)cc12)c1ccc(F)c(F)c1 [Compound 182]	< 1
100 to 1000	Cn1cc(C(=O)N[C@H]2CCc3ccc(F)cc32)c2cc(-c3ccn4nc(NC(=O)C5CC5)nc4c3)ccc21 [Compound 183]	100 to 1000
100 to 1000	Cn1cc(C(=O)N[C@H]2CCCc3ccc(F)cc32)c2cc(-c3ccn4nc(NC(=O)C5CC5)nc4c3)ccc21 [Compound 184]	100 to 1000
100 to 1000	Cn1cc(C(=O)N[C@H]2CCCc3ccccc32)c2cc(-c3ccc4nc(NC(=O)C5CC5)cn4n3)ccc21 [Compound 188]	100 to 1000
100 to 1000	Cc1cccc(C2CCCN2C(=O)c2cn(C)c3ccc(-c4ccn5nc(NC(=O)C6CC6)nc5c4)cc23)c1 (centres unmarked) [Compound 189]	100 to 1000
1 to 10	Cn1cc(C(=O)N2CCCC2c2cc(F)ccc2F)c2cc(-c3ccn4nc(NC(=O)C5CC5)nc4c3)ccc21 (centres unmarked) [Compound 190]	1 to 10
< 1	Cn1cc(C(=O)N2CCC[C@H]2c2cc(F)cc(F)c2)c2cc(-c3ccn4nc(NC(=O)C5CC5)nc4c3)ccc21 [Compound 192]	< 1
< 1	Cn1cc(C(=O)N2CCC[C@H]2c2ccc(Cl)cc2)c2cc(-c3ccn4nc(NC(=O)C5CC5)nc4c3)ccc21 [Compound 194]	< 1
